Measurements from US7572606B1 (Nereus Pharmaceuticals, Inc., priority 2005, dated 2009).
“And” between values parts separate entries of the source, which are not always exact repeats. Equal values may be shown once. Read-outs that look alike come from different tables or passages of the source.

Tests used:
[1] = biological target: caspase-like (PGPH) activity of rabbit muscle 20S proteasome (Oryctolagus cuniculus, UniProt A0A5F9DQW2); experiment: In vitro inhibition of 20S proteasome, Z-LLE-AMC; settings: purified rabbit 20S proteasome, Z-LLE-AMC
caspase-like (PGPH) activity of rabbit muscle 20S proteasome, sequence (A0A5F9DQW2 1-212): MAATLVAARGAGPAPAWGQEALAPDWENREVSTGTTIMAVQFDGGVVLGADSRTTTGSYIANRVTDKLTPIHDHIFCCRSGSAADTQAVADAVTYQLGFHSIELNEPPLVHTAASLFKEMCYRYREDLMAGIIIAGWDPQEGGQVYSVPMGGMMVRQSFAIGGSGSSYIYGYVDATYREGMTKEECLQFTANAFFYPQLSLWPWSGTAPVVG

[2] = biological target: T1, trypsin-like activity of rabbit muscle 20S proteasome (Oryctolagus cuniculus, UniProt G1SWK8); experiment: In vitro inhibition of 20S proteasome, Boc-LRR-AMC; assay type: biochemical; settings: under the conditions tested
T1 construct: EC50 Trypsin-like; other: purified rabbit 20S proteasome, Boc-LRR-AMC; other: under the conditions tested
T1 sequence (G1SWK8 1-271): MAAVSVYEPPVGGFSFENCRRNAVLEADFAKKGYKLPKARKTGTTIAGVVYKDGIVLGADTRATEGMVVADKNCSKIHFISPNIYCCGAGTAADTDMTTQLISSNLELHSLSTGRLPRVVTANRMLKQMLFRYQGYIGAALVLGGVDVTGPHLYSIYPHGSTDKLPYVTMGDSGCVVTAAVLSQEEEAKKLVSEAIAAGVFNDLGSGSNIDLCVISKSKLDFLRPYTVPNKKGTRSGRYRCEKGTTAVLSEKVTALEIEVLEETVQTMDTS

[3] = test system: NF-κB-mediated luciferase activity in HEK293 NF-κB/Luc cells; experiment: NF-κB-mediated luciferase reporter gene assay; assay type: cell-based, human; settings: for luciferase activity upon TNF-α stimulation: pretreatment of NF-κB/Luc 293 cells; for EC50: Homo sapiens, HEK293, 1 h pretreatment, 6 h TNF-α stimulation, read-out: EC50
Procedure: The HEK293 NF-κB/luciferase reporter cell line is a derivative of the human embryonic kidney cell line (ATCC; CRL-1573) and carries a luciferase reporter gene under the regulation of 5×NF-κB binding sites. […] When performing the luciferase assay, the DMEM basal medium was replaced with phenol-red free DMEM basal medium and the G418 was omitted.
For NF-κB-mediated luciferase assays, HEK293 NF-κB/luciferase cells were seeded at 1.5×10^4 cells/well in 90 μl phenol-red free DMEM complete medium into Corning 3917 white opaque-bottom tissue culture plates. For Formulae II-2, II-4, II-5A and II-18, a 400 μM starting dilution was made in 100% DMSO and this dilution was used to generate an 8-point half log dilution series. […] For formula II-20, a 2.5 mM or 8 mM starting dilution was made in 100% DMSO and the final test concentrations ranged from 6.3 μM to 2.0 nM or 20 μM to 6.3 nM respectively. The plates were returned to the incubator for 1 hour. After 1 hr pretreatment, 10 μl of a 50 ng/ml TNF-α solution, prepared in the phenol-red free DMEM medium was added, and the plates were incubated for an additional 6 hours.
At the end of the TNF-α stimulation, 100 μl of Steady Lite HTS luciferase reagent (Packard Bioscience) was added to each well and the plates were left undisturbed for 10 min at room temperature before measuring the luciferase activity. The relative luciferase units (RLU) were measured by using a Fusion microplate fluorometer (Packard Bioscience).
NF-κB inducible luciferase activity was measured at 6 hours.

[4] = biological target: T2, chymotrypsin-like activity of rabbit muscle 20S proteasome (Oryctolagus cuniculus, UniProt G1T4Q9); experiment: In vitro inhibition of 20S proteasome, suc-LLVY-AMC
T2 sequence (G1T4Q9 1-263): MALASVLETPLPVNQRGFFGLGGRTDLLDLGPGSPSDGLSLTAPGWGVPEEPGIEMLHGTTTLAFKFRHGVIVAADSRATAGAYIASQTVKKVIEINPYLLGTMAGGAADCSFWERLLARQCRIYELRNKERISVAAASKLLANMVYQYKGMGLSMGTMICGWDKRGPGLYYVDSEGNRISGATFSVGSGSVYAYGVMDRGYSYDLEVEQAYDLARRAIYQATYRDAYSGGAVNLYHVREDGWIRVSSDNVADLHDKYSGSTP

[5] = test system: 20S proteasome chymotrypsin-like activity in RPMI 8226 cells; experiment: Chymotrypsin-like activity of 20S proteasomes in treated cells; assay type: cell-based, human; settings: 1 hr, mean ± SD, n = 3
Procedure: RPMI 8226 (ATCC, CCL-155), the human multiple myeloma cell line, was cultured in RPMI 1640 medium supplemented with 2 mM L-glutamine, 100 units/ml penicillin, 100 μg/ml streptomycin, 1 mM sodium pyruvate and 10% heat inactivated fetal bovine serum at 37° C., 5% CO2 and 95% humidified air. […] DMSO was used as the vehicle control at a final concentration of 0.1%. Following 1 hr incubation of RMPI 8226 cells with the compounds, the cells were pelleted by centrifugation at 2,000 rpm for 10 sec at room temperature and washed 3× with ice-cold 1×Dulbecco's Phosphate-Buffered Saline (DPBS, Mediatech, Herndon, Va.). DPBS washed cells were lysed on ice for 15 min in lysis buffer (20 mM HEPES, 0.5 mM EDTA, 0.05% Triton X-100, pH 7.3) supplemented with protease inhibitor cocktail (Roche Diagnostics, Indianapolis, Ind.). Cell debris was pelleted by centrifugation at 14,000 rpm for 10 min, 4° C. and supernatants (=cell lysates) were transferred to a new tube. Protein concentration was determined by the BCA protein assay kit (Pierce Biotechnology, Rockford, Ill.). […] The total amount of protein used for each assay was 20 μg. The final concentration of Suc-LLVY-AMC and DMSO was 20 μM and 0.2%, respectively.

RPMI 8226 = experiment: Cell growth inhibition, resazurin, 48 h; settings: Homo sapiens, RPMI-8226, 48 h, RPMI 8226, 48 h drug exposure
Procedure: RPMI 8226 (CCL-155), HT-29 (HTB-38), and B16-F10 (CRL-6475) cells were purchased from ATCC. RPMI 8226 cells were maintained in RPMI 1640 media supplemented with 10% (v/v) FBS, 2 mM L-glutamine, 1 mM sodium pyruvate and Penicillin/Streptomycin at 100 IU/ml and 100 μg/ml, respectively. HT-29 cells were maintained in McCoys 5A supplemented with 10% (v/v) FBS, 2 mM L-glutamine, 1 mM sodium pyruvate, 1% (v/v) non-essential amino acids, 10 mM HEPES and Penicillin/Streptomycin at 100 IU/ml and 100 μg/ml, respectively. B16-F10 cells were maintained in DMEM supplemented with 10% (v/v) FBS, 2 mM L-glutamine, 10 mM HEPES and Penicillin/Streptomycin at 100 IU/ml and 100 μg/ml, respectively.
RPMI 8226 cells were seeded at 2×10^4 cells/well in 90 μl RPMI media containing 10% (v/v) FBS or 1% (v/v) FBS into 96 well black-walled, clear-bottom tissue culture plates. […] Formulae II-16, II-17 and Formula II-18 were serially diluted in media containing 1% or 10% FBS and added in triplicate to the test wells. […] The final concentration of Formula II-18 ranged from 2 μM to 630 pM.

U266 = experiment: Cell growth inhibition, resazurin, 48 h; assay type: cell-based, human; settings: U266, 48 h drug exposure
MES-SA/Dx5 = experiment: Cell growth inhibition, resazurin, 48 h; settings: human, 48 h
Procedure: (§1) Concentrations ranging from 6.32 μM to 2 nM were tested for II-2 and II-4.

HL-60/MX2 = experiment: Cell growth inhibition, resazurin, 48 h; settings: HL-60/MX2, 48 h drug exposure
Procedure: The DNA binding agent Mitoxantrone was included as a control, as HL-60/MX2 cells are reported to be resistant to this chemotherapeutic agent (Harker W. G. et al. 1989).
as §1

[6] = read-out: EC50 Caspase-like (PGPH)

Row | Structure (SMILES) | EC50 ([1]; read-out: EC50 Caspase-like) | inhibition of the trypsin-like activity of the 20S proteasome [2] | luciferase activity upon TNF-α stimulation [3] | other results
1 | COC(=O)CCSC(=O)C1(C(O)C2C=CCCC2)NC(=O)C2CCOC21C (stereo not drawn) [Formula VI-1A] | 7900 nM and 8700 nM | able to inhibit the trypsin-like activity | – | –
2 | CCC[C@H]1C(=O)N[C@@]2([C@@H](O)[C@@H]3C=CCCC3)C(=O)O[C@@]12C [Formula II-30] | 1300 nM | able to inhibit the trypsin-like activity | dose-dependent decrease of luciferase activity | EC50 [1, 6]: 956 nM
3 | C[C@@]12OC(=O)[C@]1(C(=O)C1=CC(O)CCC1)NC(=O)[C@]2(C)CCCl (stereo partly drawn) [Formula II-31] | – | – | – | EC50 [4]: > 20000 nM
4 | CCC(=O)OCC[C@H]1C(=O)N[C@@]2([C@@H](O)[C@@H]3C=CCCC3)C(=O)O[C@@]12C [Formula II-22] | 1400 nM | able to inhibit the trypsin-like activity | dose-dependent decrease of luciferase activity | –
5 | CC(C)[C@H](O)[C@@]12NC(=O)[C@H](C)[C@@H]1OC2=O [Omuralide, reference compound] | – | – | – | % inhibition of the chymotrypsin-like activity of 20S proteasomes in RPMI 8226 cell lysates ([5]; 1 nM): 5 ± 9%; % inhibition of the chymotrypsin-like activity of 20S proteasomes in RPMI 8226 cell lysates ([5]; 5 nM): 8 ± 9%; % inhibition of the chymotrypsin-like activity of 20S proteasomes in RPMI 8226 cell lysates ([5]; 10 nM): 4 ± 9%; % inhibition of the chymotrypsin-like activity of 20S proteasomes in RPMI 8226 cell lysates ([5]; 50 nM): 17 ± 11%; % inhibition of the chymotrypsin-like activity of 20S proteasomes in RPMI 8226 cell lysates ([5]; 100 nM): 32±8%; % inhibition of the chymotrypsin-like activity of 20S proteasomes in RPMI 8226 cell lysates ([5]; 500 nM): 68 ± 11%; % inhibition of the chymotrypsin-like activity of 20S proteasomes in RPMI 8226 cell lysates ([5]; 1,000 nM): 80 ± 8%; % inhibition of the chymotrypsin-like activity of 20S proteasomes in RPMI 8226 cell lysates ([5]; 10,000 nM): 93 ± 1%
6 | C[C@@]12OC(=O)[C@]1([C@@H](O)[C@@H]1C=CCCC1)NC(=O)[C@@H]2CCN=[N+]=[N-] [Formula II-29] | – | able to inhibit the trypsin-like activity | dose-dependent decrease of luciferase activity | EC50 [1, 6]: 535 nM and 520 nM
7 | CC12OC(=O)C1(C(=O)C1C=CCCC1)NC(=O)C2CCCl (stereo not drawn) [Formula II-13C] | > 20000 nM | able to inhibit the trypsin-like activity | – | –
8 | C[C@@]12OC(=O)[C@]1([C@@H](O)[C@@H]1C=CCCC1)NC(=O)[C@H]2CCCl [Formula II-26] | – | able to inhibit the trypsin-like activity | dose-dependent decrease of luciferase activity | –
9 | COC(=O)CCSC(=O)[C@]1([C@@H](O)[C@@H]2C=CCCC2)NC(=O)[C@H](CCCl)[C@]1(C)O [Formula II-44] | 1400 nM | able to inhibit the trypsin-like activity | dose-dependent decrease of luciferase activity | –
10 | C[C@@]12OC(=O)[C@]1([C@@H](O)[C@H]1CCC[C@H](Cl)[C@H]1O)NC(=O)[C@@H]2CCCl [Formula IV-3C] | > 20000 nM | – | – | EC50 (RPMI 8226): > 20000 nM; EC50 (U266; Homo sapiens, U-266, 48 h, read-out: EC50): 7760 nM; EC50 (U266; read-out: EC50): 8290 nM; EC50 [3]: > 20000 nM
11 | CC(=O)O[C@H]1C(=O)[C@@]2(C)[C@H]([C@H](OC(=O)c3ccccc3)[C@]3(O)C[C@H](OC(=O)[C@H](O)[C@@H](NC(=O)c4ccccc4)c4ccccc4)C(C)=C1C3(C)C)[C@]1(OC(C)=O)CO[C@@H]1C[C@@H]2O [Paclitaxel, reference compound] | – | – | – | % cytotoxicity (MES-SA/Dx5): 78 ± 1%
12 | CC[C@@]12OC(=O)[C@]1([C@@H](O)[C@@H]1C=CCCC1)NC(=O)[C@@H]2CCCl [Formula II-24C] | > 20000 nM | able to inhibit the trypsin-like activity | dose-dependent decrease of luciferase activity | EC50 ([4]; read-out: EC50 Chymotrypsin-like, purified rabbit 20S proteasome, suc-LLVY-AMC): 2200 nM
13 | C[C@@]12OC(=O)[C@]1([C@@H](O)[C@@H]1C=CCCC1)NC(=O)[C@@H]2CCO [Formula II-21] | 2300 nM | able to inhibit the trypsin-like activity | dose-dependent decrease of luciferase activity | EC50 [1, 6]: 2580 nM and 2330 nM
14 | C[C@@]12OC(=O)[C@]1([C@H](O)[C@@H]1C=CCCC1)NC(=O)[C@@H]2CCCl [Formula II-25] | – | – | – | EC50 (RPMI 8226): > 20000 nM; EC50 (U266; Homo sapiens, U-266, 48 h): > 20000 nM; EC50 [3]: > 20000 nM
15 | C[C@@H]1C(=O)N[C@@]2([C@@H](O)[C@@H]3C=CCCC3)C(=O)O[C@@]12C [Formula II-28] | > 20000 nM | – | – | –
16 | O=C1c2c(O)ccc(O)c2C(=O)c2c(NCCNCCO)ccc(NCCNCCO)c21 [Mitoxantrone, reference compound] | – | – | – | EC50 (HL-60/MX2): 827 nM and 1340 nM and 1170 nM; EC50 (HL-60/MX2; Homo sapiens, HL60/MX2, 48 h): 1410 nM
